From patent US10030012B2, “Piperidin-1-yl and azepin-1-yl carboxylates as muscarinic M4 receptor agonists” (Heptares Therapeutics Limited, priority 2013, dated 2018)

Columns and labels:
human M4 receptor = human M4 receptor (Homo sapiens (Human), UniProt P08173); assay: In vitro M4 functional assay (intracellular calcium, FLiPR Tetra); format: cell-based; conditions: for EC50: CHOK1 cells stably expressing human M4 receptor and Gα16, calcium flux; for Emax: relative efficacy to an EC100 concentration of acetylcholine, read-out: M4 % RE
human M4 receptor, sequence (P08173 whole entry): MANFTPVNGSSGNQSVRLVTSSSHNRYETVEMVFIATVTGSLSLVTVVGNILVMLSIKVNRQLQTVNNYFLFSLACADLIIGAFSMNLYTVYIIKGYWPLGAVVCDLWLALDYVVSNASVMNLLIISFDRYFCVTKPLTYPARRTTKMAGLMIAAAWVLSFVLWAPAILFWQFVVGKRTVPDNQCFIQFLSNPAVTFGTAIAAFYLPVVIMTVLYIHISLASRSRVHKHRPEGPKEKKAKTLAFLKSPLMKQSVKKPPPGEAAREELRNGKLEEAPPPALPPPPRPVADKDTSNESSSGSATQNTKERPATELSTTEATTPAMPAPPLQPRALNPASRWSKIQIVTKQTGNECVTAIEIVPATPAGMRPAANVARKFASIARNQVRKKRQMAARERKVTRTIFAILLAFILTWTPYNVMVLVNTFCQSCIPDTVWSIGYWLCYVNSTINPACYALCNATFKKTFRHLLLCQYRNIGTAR
Procedure: (§1) In Vitro M4 &M2 Functional Assay
(§2) The functional activity of compounds at the M4 and M2 receptors was determined by measuring changes in the level of intracellular calcium ions caused by signalling cascades mediated by the receptor. Intracellular Calcium levels were measured using a calcium sensitive fluorescent dye, calcium 5 (Molecular Devices) The changes in fluorescence were monitored by a fluorescent imager, FLiPR Tetra (Molecular devices). Increases in intracellular calcium were readily detected upon activation of both receptors by the muscarinic receptor agonist Acetylcholine.
(§3) CHOK1 cells stably expressing human M4 or M2 receptor and co-expressing the accessory g-protein Gα16 were routinely grown as monolayers in Hams-F12 medium (Invitrogen) supplemented with 10% foetal bovine serum (FBS) (Hyclone), 500 ug/mL Geneticin and 250 ug/mL zeocin (both invitrogen) in 5% CO2 at 37° C. Once confluent is cells cryopreserved by freezing at −186° C. in freezing solution (90% FBS 10% DMSO) (Sigma-Aldrich Co.). Twenty-four hours prior to testing cells resuscitated and freezing media removed via centrifugation, cells then seeded in a black walled clear bottom 384 well plates (Corning) at a density of 15,000 cells/well in Hams F12 media supplemented with 10% FBS. On the day of assay, growth media was removed and replaced with 63 μl of Calcium 5 dye solution (Molecular Devices) in assay buffer (HBSS, 20 mM HEPES, 0.1% BSA, 1 mM Probenecid pH7.4 (Sigma-Aldrich Co.)) per well (each vial of Calcium 5 resuspended in 27 mL of assay buffer). Cells were then incubated for 45 minutes at 37° C., 5% CO2. Compound was serially diluted in DMSO (log/half log) before being diluted 1:20 with assay buffer. 7 μl of compound diluted in assay buffer was then added to cells on FLiPR tetra and fluorescence intensity measured for 5 minutes. EC50 values for compounds were determined from ten point half log scale dose-response studies and represent the concentration of compound required to […] maximal response. Curves were generated using the average of duplicate wells for each data point and analyzed using non-linear regression of four parameter dose response. Percentage Relative efficacy (RE) to an EC100 concentration of acetylcholine was reported for all compounds. The results are set out in Table 3 below in which the term “No Response” means that there was no significant response of calcium flux in the assay indicative of agonism.

human M2 receptor = human M2 receptor (Homo sapiens (Human), UniProt P08172); assay: In vitro M2 functional assay (intracellular calcium, FLiPR Tetra); format: cell-based; conditions: for M2 EC50 / EC50: CHOK1 cells stably expressing human M2 receptor and Gα16, calcium flux, No Response = no significant response of calcium flux indicative of agonism; for M2 % RE: relative efficacy to an EC100 concentration of acetylcholine
human M2 receptor, sequence (P08172 whole entry): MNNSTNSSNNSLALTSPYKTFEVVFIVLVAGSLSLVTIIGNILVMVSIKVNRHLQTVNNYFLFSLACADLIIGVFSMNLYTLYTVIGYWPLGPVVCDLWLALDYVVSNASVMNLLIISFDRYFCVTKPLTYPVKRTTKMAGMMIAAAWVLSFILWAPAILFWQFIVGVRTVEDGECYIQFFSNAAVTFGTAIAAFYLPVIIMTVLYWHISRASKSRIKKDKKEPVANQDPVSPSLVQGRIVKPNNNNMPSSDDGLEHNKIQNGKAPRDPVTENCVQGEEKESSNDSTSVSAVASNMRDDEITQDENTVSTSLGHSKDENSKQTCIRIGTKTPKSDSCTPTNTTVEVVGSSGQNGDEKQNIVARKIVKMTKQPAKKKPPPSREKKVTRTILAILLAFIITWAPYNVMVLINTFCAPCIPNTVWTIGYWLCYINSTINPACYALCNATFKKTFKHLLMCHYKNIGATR
Procedure: as §1, §2, §3

Row | SMILES | EC50 (human M4 receptor) [nM] | Emax (human M4 receptor) [%] | M2 EC50 (human M2 receptor) | EC50 (human M2 receptor) [nM] | M2 % RE (human M2 receptor) [%] | activation at 10 µM (human M2 receptor; response at 10 μM compound, relative to an EC100 concentration of acetylcholine, read-out: M2 % RE @ 10 μM) [%]
1 | CCOC(=O)N1CCCC(N2CCC(n3nccc3C(=O)NCC3CC3)CC2)CC1 (stereo not drawn) [Example 24, Ethyl 4-(4-{5-[(cyclopropylmethyl)carbamoyl]-1H-pyrazol-1-yl}piperidin-1-yl)azepane-1-carboxylate] | 1370 | 45 | No Response |  |  | 
2 | CCOC(=O)N1CCCC(N2CCC(n3nccc3-c3sc(C)nc3C)CC2)CC1 (stereo not drawn) [Example 25, Ethyl 4-{4-[5-(dimethyl-1,3-thiazol-5-yl)-1H-pyrazol-1-yl]piperidin-1-yl}azepane-1-carboxylate] | 270 | 46 | No Response |  |  | 
3 | CCOC(=O)N1CCCC(N2CCC(c3nccs3)CC2)CC1 (stereo not drawn) [Example 26, Ethyl 4-[4-(1,3-thiazol-2-yl)piperidin-1-yl]azepane-1-carboxylate] | 130 | 51 | No Response |  |  | 
4 | CCOC(=O)N1CCCC(N2CCC(n3nccc3C#N)CC2)CC1 (stereo not drawn) [Example 27, Ethyl 4-[4-(5-cyano-1H-pyrazol-1-yl)piperidin-1-yl]azepane-1-carboxylate] | 320 | 55 | No Response |  |  | 
5 | CCOC(=O)N1CCCC(N2CCC(n3nccc3CNC(C)=O)CC2)CC1 (stereo not drawn) [Example 28, Ethyl 4-{4-[5-(acetamidomethyl)-1H-pyrazol-1-yl]piperidin-1-yl}azepane-1-carboxylate] | 1480 | 59 | No Response |  |  | 
6 | CCOC(=O)N1CCC(CN2CC(n3cccn3)C2)CC1 [Example 29, Ethyl 4-{[3-(1H-pyrazol-1-yl)azetidin-1-yl]methyl}piperidine-1-carboxylate] | 1830 | 29 | No Response |  |  | 
7 | CCOC(=O)N1CCCC(N2CCC(c3ccncc3)CC2)CC1 (stereo not drawn) [Example 30, Ethyl 4-[4-(pyridin-4-yl)piperidin-1-yl]azepane-1-carboxylate] | 1660 | 27 | No Response |  |  | 
8 | CCOC(=O)N1CCC(N2CCC(c3ccncc3)CC2)CC1 [Example 31, Ethyl 4-[4-(pyridin-4-yl)piperidin-1-yl]piperidine-1-carboxylate] | 2260 | 30 | No Response |  |  | 
9 | CCOC(=O)N1CCC(N2CCC(c3cccc(OC)n3)CC2)CC1 [Example 32, Ethyl 4-[4-(6-methoxypyridin-2-yl)piperidin-1-yl]piperidine-1-carboxylate] | 220 | 73 | No Response |  |  | 
10 | CCOC(=O)N1CCCC(N2CCC(c3cccc(OC)n3)CC2)CC1 (stereo not drawn) [Example 33, Ethyl 4-[4-(6-methoxypyridin-2-yl)piperidin-1-yl]azepane-1-carboxylate] | 180 | 61 | No Response |  |  | 
11 | CCOC(=O)N1CCC(N2CCC(c3cccnc3OC)CC2)CC1 [Example 34, Ethyl 4-[4-(2-methoxypyridin-3-yl)piperidin-1-yl]piperidine-1-carboxylate] | 90 | 90 | No Response |  |  | 
12 | CCOC(=O)N1CCCC(N2CCC(c3cccnc3OC)CC2)CC1 (stereo not drawn) [Example 35, Ethyl 4-[4-(2-methoxypyridin-3-yl)piperidin-1-yl]azepane-1-carboxylate] | 30 | 102 | No Response |  |  | 
13 | CCOC(=O)N1CCC(N2CCC(c3ccnc(C)n3)CC2)CC1 [Example 36, Ethyl 4-[4-(2-methylpyrimidin-4-yl)piperidin-1-yl]piperidine-1-carboxylate] | 6730 | 25 | No Response |  |  | 
14 | CCOC(=O)N1CCC(N2CCC(c3nc(OC)cc(OC)n3)CC2)CC1 [Example 37, Ethyl 4-[4-(4,6-dimethoxypyrimidin-2-yl)piperidin-1-yl]piperidine-1-carboxylate] | 3340 | 39 | No Response |  |  | 
15 | CCOC(=O)N1CCCC(N2CCC(c3ncccc3OC)CC2)CC1 (stereo not drawn) [Example 38, Ethyl 4-[4-(3-methoxypyridin-2-yl)piperidin-1-yl]azepane-1-carboxylate] | 30 | 92 |  | 160 | 75 | 
16 | CCOC(=O)N1CCCC(N2CCC(c3cccn(C)c3=O)CC2)CC1 (stereo not drawn) [Example 39, Ethyl 4-[4-(1-methyl-2-oxo-1,2-dihydropyridin-3-yl)piperidin-1-yl]azepane-1-carboxylate] | 740 | 41 | No Response |  |  | 
17 | CCOC(=O)N1CCCC(N2CCC(c3nccnc3OC)CC2)CC1 (stereo not drawn) [Example 40, Ethyl 4-[4-(3-methoxypyrazin-2-yl)piperidin-1-yl]azepane-1-carboxylate] | 140 | 62 | No Response |  |  | 
18 | CCOC(=O)N1CCCC(N2CCC(c3cccnc3C)CC2)CC1 (stereo not drawn) [Example 41, Ethyl 4-[4-(2-methylpyridin-3-yl)piperidin-1-yl]azepane-1-carboxylate] | 260 | 54 | No Response |  |  | 
19 | CCOC(=O)N1CCCC(N2CCC(c3cc(C)cnc3OCC)CC2)CC1 (stereo not drawn) [Example 42, Ethyl 4-[4-(2-ethoxy-5-methylpyridin-3-yl)piperidin-1-yl]azepane-1-carboxylate] | 20 | 82 | No Response |  |  | 
20 | CCOC(=O)N1CCCC(N2CCC(c3cc(C(F)(F)F)cnc3OC)CC2)CC1 (stereo not drawn) [Example 43, Ethyl 4-{4-[2-methoxy-5-(trifluoromethyl)pyridin-3-yl]piperidin-1-yl}azepane-1-carboxylate] | 20 | 94 |  | 180 | 62 | 
21 | CCOC(=O)N1CCCC(N2CCC(c3ccncc3OC)CC2)CC1 (stereo not drawn) [Example 44, Ethyl 4-[4-(3-methoxypyridin-4-yl)piperidin-1-yl]azepane-1-carboxylate] | 370 | 52 | No Response |  |  | 
22 | CCOC(=O)N1CCCC(N2CCC(c3cncc(OC)c3)CC2)CC1 (stereo not drawn) [Example 45, Ethyl 4-[4-(5-methoxypyridin-3-yl)piperidin-1-yl]azepane-1-carboxylate] | 460 | 25 | No Response |  |  | 
23 | CCOC(=O)N1CCC(N2CCC(c3cccnc3C)CC2)CC1 [Example 46, Ethyl 4-[4-(2-methylpyridin-3-yl)piperidin-1-yl]piperidine-1-carboxylate] | 1550 | 31 | No Response |  |  | 
24 | CCOC(=O)N1CCC(N2CCC(c3cc(C)cnc3OCC)CC2)CC1 [Example 47, Ethyl 4-[4-(2-ethoxy-5-methylpyridin-3-yl)piperidin-1-yl]piperidine-1-carboxylate] | 160 | 72 | No Response |  |  | 
25 | CCOC(=O)N1CCCC(N2CCC(c3cnccc3OC)CC2)CC1 (stereo not drawn) [Example 48, Ethyl 4-[4-(4-methoxypyridin-3-yl)piperidin-1-yl]azepane-1-carboxylate] | 250 | 63 | No Response |  |  | 
26 | CCOC(=O)N1CCCC(N2CCC(c3nccnc3N(C)C)CC2)CC1 (stereo not drawn) [Example 49, Ethyl 4-{4-[3-(dimethylamino)pyrazin-2-yl]piperidin-1-yl}azepane-1-carboxylate] | 210 | 53 | No Response |  |  | 
27 | CCOC(=O)N1CCCC(N2CCC(c3cncc(N(C)C)n3)CC2)CC1 (stereo not drawn) [Example 50, Ethyl 4-{4-[6-(dimethylamino)pyrazin-2-yl]piperidin-1-yl}azepane-1-carboxylate] | 460 | 50 | No Response |  |  | 
28 | CCOC(=O)N1CCCC(N2CCC(c3cncnc3OC)CC2)CC1 (stereo not drawn) [Example 51, Ethyl 4-[4-(4-methoxypyrimidin-5-yl)piperidin-1-yl]azepane-1-carboxylate] | 310 | 69 | No Response |  |  | 
29 | CCOC(=O)N1CCCC(N2CCC(c3cccnc3OC(F)F)CC2)CC1 (stereo not drawn) [Example 52, Ethyl 4-{4-[2-(difluoromethoxy)pyridin-3-yl]piperidin-1-yl}azepane-1-carboxylate] | 10 | 96 |  | > 10000 |  | 25
